Experiments:
Test in all cases: biochemical
Parameters in all cases: KinomeScan competition binding panel (DiscoveRx), percent of control at 1 uM
Settings in all cases: read-out: Percent Control
[1] = molecular target: T1, ABL1(T315I)-nonphosphorylated (Homo sapiens, UniProt P00519, T315I)
T1 construct: nonphosphorylated
In short: (§1)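 Selectivity profiled across 456 kinases/mutants by KinomeScan binding technology.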

[2] = molecular target: ANKK1 (Homo sapiens, UniProt Q8NFD2)
In short: as §1

[3] = molecular target: BRAF(V600E) (Homo sapiens, UniProt P15056, V600E)
In short: as §1

[4] = molecular target: CDK9 (Homo sapiens, UniProt P50750)
In short: as §1

[5] = molecular target: CLK1 (Homo sapiens, UniProt P49759)
In short: as §1

[6] = molecular target: T2, DRAK2 (Homo sapiens, UniProt O94768)
T2 construct: gene STK17B
In short: as §1

[7] = molecular target: EGFR(E746-A750del) (Homo sapiens, UniProt P00533, DEL746-750)
In short: as §1

[8] = molecular target: EGFR(L861Q) (Homo sapiens, UniProt P00533, L861Q)
In short: as §1

[9] = molecular target: FYN (Homo sapiens, UniProt P06241)
In short: as §1

[10] = molecular target: HASPIN (Homo sapiens, UniProt Q8TF76)
In short: as §1

[11] = molecular target: HIPK1 (Homo sapiens, UniProt Q86Z02)
In short: as §1

[12] = molecular target: T3, LOK (Homo sapiens, UniProt O94804)
T3 construct: gene STK10
In short: as §1

[13] = molecular target: LRRK2 (Homo sapiens, UniProt Q5S007)
In short: as §1

[14] = molecular target: MAP3K1 (Homo sapiens, UniProt Q13233)
In short: as §1

[15] = molecular target: MAP3K2 (Homo sapiens, UniProt Q9Y2U5)
In short: as §1

[16] = molecular target: MARK4 (Homo sapiens, UniProt Q96L34)
In short: as §1

[17] = molecular target: NEK10 (Homo sapiens, UniProt Q6ZWH5)
In short: as §1

[18] = molecular target: NEK9 (Homo sapiens, UniProt Q8TD19)
In short: as §1

[19] = molecular target: PAK2 (Homo sapiens, UniProt Q13177)
In short: as §1

[20] = molecular target: PIK3C2G (Homo sapiens, UniProt O75747)
In short: as §1

[21] = molecular target: PIK3CA(H1047L) (Homo sapiens, UniProt P42336, H1047L)
In short: as §1

[22] = molecular target: RET(V804L) (Homo sapiens, UniProt P07949, V804L)
In short: as §1

[23] = molecular target: SGK2 (Homo sapiens, UniProt Q9HBY8)
In short: as §1

[24] = molecular target: SNRK (Homo sapiens, UniProt Q9NRH2)
In short: as §1

[25] = molecular target: STK33 (Homo sapiens, UniProt Q9BYT3)
In short: as §1

Chain of PAK2 (Q13177 whole entry): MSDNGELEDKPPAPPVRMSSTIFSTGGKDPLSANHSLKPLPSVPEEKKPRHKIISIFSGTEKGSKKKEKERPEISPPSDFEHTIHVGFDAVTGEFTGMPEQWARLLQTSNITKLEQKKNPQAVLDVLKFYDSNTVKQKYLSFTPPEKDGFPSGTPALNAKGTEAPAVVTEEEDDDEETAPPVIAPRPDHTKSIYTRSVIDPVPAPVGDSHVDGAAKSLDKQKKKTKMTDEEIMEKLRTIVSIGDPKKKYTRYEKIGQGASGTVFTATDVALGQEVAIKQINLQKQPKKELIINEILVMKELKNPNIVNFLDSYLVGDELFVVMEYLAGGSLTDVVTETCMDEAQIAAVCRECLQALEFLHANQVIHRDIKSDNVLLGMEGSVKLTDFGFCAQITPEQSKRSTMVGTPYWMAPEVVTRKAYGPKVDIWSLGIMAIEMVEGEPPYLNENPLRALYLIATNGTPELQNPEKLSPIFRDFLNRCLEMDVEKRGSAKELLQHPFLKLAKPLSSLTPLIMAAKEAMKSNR
Chain of PIK3CA(H1047L) (P42336 whole entry H1047L): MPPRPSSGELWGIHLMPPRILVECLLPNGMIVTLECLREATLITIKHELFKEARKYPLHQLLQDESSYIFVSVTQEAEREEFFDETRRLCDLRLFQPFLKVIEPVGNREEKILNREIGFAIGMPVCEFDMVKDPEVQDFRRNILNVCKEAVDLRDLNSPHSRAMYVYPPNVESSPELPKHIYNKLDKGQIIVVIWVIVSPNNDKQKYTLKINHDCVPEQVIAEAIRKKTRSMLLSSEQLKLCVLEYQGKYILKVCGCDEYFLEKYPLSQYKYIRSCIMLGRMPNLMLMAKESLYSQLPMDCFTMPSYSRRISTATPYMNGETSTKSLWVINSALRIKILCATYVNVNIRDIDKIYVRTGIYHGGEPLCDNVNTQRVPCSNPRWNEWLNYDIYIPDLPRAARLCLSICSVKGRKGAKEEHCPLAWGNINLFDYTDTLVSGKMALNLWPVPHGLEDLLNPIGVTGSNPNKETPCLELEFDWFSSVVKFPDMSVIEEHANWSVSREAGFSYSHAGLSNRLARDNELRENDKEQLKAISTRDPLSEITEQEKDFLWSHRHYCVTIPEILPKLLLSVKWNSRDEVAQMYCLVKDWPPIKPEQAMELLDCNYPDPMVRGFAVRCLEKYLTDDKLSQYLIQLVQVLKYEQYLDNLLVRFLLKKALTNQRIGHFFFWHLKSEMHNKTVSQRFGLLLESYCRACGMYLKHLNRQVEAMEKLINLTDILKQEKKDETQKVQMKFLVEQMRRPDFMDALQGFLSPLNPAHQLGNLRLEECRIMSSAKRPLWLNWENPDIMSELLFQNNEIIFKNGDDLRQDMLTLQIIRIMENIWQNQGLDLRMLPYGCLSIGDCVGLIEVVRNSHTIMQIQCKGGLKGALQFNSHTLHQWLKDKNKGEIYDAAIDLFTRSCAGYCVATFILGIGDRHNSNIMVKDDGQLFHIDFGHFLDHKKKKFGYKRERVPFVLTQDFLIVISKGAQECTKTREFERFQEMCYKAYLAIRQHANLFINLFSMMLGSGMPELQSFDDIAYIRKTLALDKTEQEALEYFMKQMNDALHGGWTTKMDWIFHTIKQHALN
Chain of STK33 (Q9BYT3 whole entry): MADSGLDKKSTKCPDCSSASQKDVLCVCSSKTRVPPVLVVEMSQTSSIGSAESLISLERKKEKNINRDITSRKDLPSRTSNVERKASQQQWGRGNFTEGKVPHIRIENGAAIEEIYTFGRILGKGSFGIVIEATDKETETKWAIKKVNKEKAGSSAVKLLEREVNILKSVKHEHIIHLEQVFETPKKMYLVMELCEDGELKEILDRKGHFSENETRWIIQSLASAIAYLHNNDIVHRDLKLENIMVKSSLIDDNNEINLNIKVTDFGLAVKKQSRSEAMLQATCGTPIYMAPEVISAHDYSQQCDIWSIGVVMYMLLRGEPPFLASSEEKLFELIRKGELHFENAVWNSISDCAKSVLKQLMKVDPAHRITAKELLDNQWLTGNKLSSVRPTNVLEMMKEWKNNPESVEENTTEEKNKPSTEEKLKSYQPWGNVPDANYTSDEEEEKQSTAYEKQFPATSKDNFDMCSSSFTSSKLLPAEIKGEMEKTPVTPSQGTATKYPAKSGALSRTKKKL
Chain of LRRK2 (Q5S007 whole entry): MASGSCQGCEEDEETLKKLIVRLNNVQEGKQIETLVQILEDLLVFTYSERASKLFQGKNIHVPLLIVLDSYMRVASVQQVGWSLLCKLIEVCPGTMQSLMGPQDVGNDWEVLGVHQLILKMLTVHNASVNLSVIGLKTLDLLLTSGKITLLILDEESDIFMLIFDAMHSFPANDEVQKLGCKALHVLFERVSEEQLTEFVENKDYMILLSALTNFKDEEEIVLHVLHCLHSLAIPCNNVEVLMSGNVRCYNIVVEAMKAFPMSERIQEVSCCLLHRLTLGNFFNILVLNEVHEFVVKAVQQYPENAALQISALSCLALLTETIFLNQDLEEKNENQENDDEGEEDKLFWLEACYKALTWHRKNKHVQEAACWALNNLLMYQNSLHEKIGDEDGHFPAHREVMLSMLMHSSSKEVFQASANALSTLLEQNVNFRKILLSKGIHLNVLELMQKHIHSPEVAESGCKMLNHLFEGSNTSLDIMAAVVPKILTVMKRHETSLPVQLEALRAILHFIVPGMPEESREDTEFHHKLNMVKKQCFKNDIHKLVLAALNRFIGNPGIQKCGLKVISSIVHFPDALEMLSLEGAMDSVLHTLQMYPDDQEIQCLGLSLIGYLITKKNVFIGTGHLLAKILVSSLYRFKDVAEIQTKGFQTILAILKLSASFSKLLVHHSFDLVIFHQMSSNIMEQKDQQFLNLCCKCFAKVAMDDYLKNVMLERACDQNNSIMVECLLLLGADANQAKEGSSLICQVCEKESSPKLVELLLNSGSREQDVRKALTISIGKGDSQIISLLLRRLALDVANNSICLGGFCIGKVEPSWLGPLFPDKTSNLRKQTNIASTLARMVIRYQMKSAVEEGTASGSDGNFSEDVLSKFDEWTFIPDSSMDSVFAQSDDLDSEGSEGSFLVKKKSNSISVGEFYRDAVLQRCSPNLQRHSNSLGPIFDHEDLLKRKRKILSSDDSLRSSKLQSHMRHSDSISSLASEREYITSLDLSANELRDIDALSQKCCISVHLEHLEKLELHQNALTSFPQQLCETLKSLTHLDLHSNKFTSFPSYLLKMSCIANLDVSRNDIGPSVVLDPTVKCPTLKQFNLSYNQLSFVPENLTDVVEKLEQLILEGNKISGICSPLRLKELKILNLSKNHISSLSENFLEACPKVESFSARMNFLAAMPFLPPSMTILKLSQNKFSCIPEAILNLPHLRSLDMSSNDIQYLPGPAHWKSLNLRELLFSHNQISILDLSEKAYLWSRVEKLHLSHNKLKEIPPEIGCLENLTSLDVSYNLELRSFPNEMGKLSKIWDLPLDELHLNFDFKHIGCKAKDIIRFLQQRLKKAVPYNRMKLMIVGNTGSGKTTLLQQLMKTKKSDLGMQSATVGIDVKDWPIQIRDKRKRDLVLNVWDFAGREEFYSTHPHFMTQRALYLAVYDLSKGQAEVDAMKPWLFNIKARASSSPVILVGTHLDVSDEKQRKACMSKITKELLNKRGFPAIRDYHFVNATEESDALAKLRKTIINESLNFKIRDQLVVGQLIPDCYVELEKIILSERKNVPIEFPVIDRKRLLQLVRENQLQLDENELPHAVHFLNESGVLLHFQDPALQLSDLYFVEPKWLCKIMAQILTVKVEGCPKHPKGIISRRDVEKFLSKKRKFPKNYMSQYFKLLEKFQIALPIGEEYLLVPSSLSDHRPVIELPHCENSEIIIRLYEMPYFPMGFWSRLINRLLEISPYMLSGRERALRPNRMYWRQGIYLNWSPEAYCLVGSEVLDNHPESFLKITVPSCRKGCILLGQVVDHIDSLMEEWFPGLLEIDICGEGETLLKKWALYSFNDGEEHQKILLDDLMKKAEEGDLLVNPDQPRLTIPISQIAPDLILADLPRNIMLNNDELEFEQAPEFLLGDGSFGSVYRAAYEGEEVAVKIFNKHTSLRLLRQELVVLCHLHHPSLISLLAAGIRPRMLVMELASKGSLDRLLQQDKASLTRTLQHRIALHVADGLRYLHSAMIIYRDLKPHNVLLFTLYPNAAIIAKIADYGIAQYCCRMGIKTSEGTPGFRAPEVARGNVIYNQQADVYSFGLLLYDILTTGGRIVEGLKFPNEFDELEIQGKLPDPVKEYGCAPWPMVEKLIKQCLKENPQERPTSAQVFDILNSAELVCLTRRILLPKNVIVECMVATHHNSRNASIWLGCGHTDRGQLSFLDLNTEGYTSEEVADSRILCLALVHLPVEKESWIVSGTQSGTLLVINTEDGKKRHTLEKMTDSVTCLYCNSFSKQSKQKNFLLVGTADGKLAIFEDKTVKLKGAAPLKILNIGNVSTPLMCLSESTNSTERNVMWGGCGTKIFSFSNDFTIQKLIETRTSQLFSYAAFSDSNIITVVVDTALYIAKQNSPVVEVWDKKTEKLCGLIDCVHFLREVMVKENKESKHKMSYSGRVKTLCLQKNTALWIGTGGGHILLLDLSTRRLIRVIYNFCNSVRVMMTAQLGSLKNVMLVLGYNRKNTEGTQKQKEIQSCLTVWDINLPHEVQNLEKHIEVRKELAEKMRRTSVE
Chain of CLK1 (P49759 whole entry): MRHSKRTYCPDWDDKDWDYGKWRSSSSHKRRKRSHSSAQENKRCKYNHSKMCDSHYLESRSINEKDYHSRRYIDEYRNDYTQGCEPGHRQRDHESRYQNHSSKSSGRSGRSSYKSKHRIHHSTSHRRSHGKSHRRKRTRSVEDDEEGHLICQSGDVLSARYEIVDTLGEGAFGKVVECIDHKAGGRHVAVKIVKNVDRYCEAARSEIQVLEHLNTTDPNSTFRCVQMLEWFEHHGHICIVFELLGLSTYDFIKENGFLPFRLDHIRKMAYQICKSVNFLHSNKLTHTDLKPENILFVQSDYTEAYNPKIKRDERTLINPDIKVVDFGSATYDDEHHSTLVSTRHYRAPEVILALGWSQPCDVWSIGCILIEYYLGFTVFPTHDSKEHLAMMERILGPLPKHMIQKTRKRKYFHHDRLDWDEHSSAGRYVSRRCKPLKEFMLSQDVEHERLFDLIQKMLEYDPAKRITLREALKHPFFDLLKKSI

With `C=CC(=O)Nc1cc(-n2c(=O)ccc3cnc4ccc(-n5cccn5)cc4c32)ccc1C` [CHMFL-BTK-11] the remaining binding at 1 µM [1] was 79%, the remaining binding at 1 µM [2] was 81% and the remaining binding at 1 µM [3] was 100%. It also gave a remaining binding at 1 µM [4] of 96%, a remaining binding at 1 µM [5] of 92% and a remaining binding at 1 µM [6] of 95%. For the same molecule, the remaining binding at 1 µM [7] was 90%, the remaining binding at 1 µM [8] was 71% and the remaining binding at 1 µM [9] was 99%. The remaining binding at 1 µM [10] was 59%, the remaining binding at 1 µM [11] was 79% and the remaining binding at 1 µM [12] was 97%. It also gave a remaining binding at 1 µM [13] of 96%, a remaining binding at 1 µM [14] of 100% and a remaining binding at 1 µM [15] of 99%. For the same molecule, the remaining binding at 1 µM [16] was 79%, the remaining binding at 1 µM [17] was 97% and the remaining binding at 1 µM [18] was 100%. It also gave a remaining binding at 1 µM [19] of 99%, a remaining binding at 1 µM [20] of 95% and a remaining binding at 1 µM [21] of 85%. It also gave a remaining binding at 1 µM [22] of 97%, a remaining binding at 1 µM [23] of 85% and a remaining binding at 1 µM [24] of 94%. The remaining binding at 1 µM [25] was 89%.

Reference: PMC5428509, “Irreversible inhibition of BTK kinase by a novel highly selective inhibitor CHMFL-BTK-11 suppresses inflammatory response in rheumatoid arthritis model” (Scientific Reports, 2017)
